Measured values as given in article PMC8807399, “Synthesis, Characterization, and in vivo Evaluation of a Novel Potent Autotaxin-Inhibitor” (Frontiers in Pharmacology, 2022).
Values after ≈ are worked out from the molar mass of the structure shown.

Tests used:
[1] = Lipophilicity (LogD, octanol/buffer); assay type: physicochemical; settings: 1-octanol / 25 mM phosphate buffer; pH 7.4, octanol/25 mM phosphate buffer
Protocol: The experiment started with the accurate coating of the hydrophobic layer (0.45 µm PVDF membranes), which was fixed on the bottom of each DIFI©-tube (Weidmann Medical Technology AG, Rapperswil, Switzerland). The coated membranes were then connected to a 96-well plate which has been prefilled with exactly 150 µl of the selected aqueous buffer solution (25 mM phosphate buffer, pH 7.4). The buffer solution contains already the compound of interest with a maximum starting concentration of 85 µM. To expand the measurement range down to logD = −0.5 and up to logD = +4, it is necessary to carry out the procedure at two different octanol/water ratios: One with an excess of octanol for hydrophilic compounds (logD < 1) and one with a low volume of octanol for the lipophilic compounds (logD > 1). Therefore, parts of the DIFI©-tubes were filled with 15 µl 1-octanol and another part with 1 µl 1-octanol. The resulting sandwich guarantees that the membrane was completely dipped in the buffer solution. The plate was then sealed and shaken for 12 h at room temperature (23°C). During this time, the substance is distributed between the layer, the octanol, and the buffer solution. After having reached a distribution equilibrium, the DIFI©-tubes were easily disassembled from the top of the 96-well plate, so that the remaining sample concentration in the aqueous phase could be analyzed by LC/MS.

[2] = HT-solubility assay; assay type: physicochemical; settings: aqueous buffer, thermodynamic from solid; phosphate buffer pH 6.5
Protocol: This assay was performed on a TECAN station starting from 10 mM DMSO stock solutions of the test compounds. Two aliquots of the test compound were dried and dissolved in phosphate buffer at pH 6.5. Sonication supports optimal re-solubilization. The solutions were then filtered and diluted (3 different dilution levels for each compound) followed by quantification of the dissolved material with Rapid-Fire MS. Quantification was performed for each test compound with a 6-point calibration curve prepared with the same DMSO starting solution.

[3] = In vitro microsomal stability, mouse; assay type: in vitro ADME; settings: mouse microsomes, 1 µM; value of 10 = low clearance, essentially below detection limit
Protocol: Incubations of a test compound at a concentration of 1 µM with microsomes (0.5 mg/ml) from the appropriate species (human, mouse, or rat) plus cofactor NADPH were performed in 96-well plates at 37°C on a TECAN automated liquid handling system (Tecan Group Ltd., Männedorf, Switzerland). After pre-incubation of the test compound with the microsomes for 10 min, the enzymatic reaction was started by the addition of cofactors. Aliquots of the incubations are removed at 1, 3, 6, 9, 15, 25, 35, and 45 min and are then quenched with 1:3 (v/v) acetonitrile containing internal standards. Samples were then cooled and centrifuged before analysis of the supernatant by LC-MS/MS. Logarithmic Peak area ratios (test compound peak area/internal standard peak area) were plotted against incubation time and a linear fit made to the data with emphasis upon the initial rate of compound disappearance. The slope of the fit was then used to calculate the intrinsic clearance: Clint (µL/min/mg protein) = −slope (min-1) * 1,000/[protein concentration (mg/ml)].

[4] = Single dose PK in rats; assay type: in vivo; settings: rat
Protocol: Exposures in animals treated with ATX-inhibitors were determined from K2EDTA treated plasma by LC-MS/MS at different time points. 25 µL of plasma was used for a single concentration determination. Concentration/time profiles were analyzed with MS Excel (Microsoft Corporation, Redmond, WA, United States).
For PK experiments for 7, 13, 14, and 15, respectively, animals were treated either iv or po and exposures were determined at different time points after compound administration. Suitable formulations for 13 were, for example, NMP:Tris buffer pH 8.5 (30%/70%) for iv administration with a nominal drug concentration of 1 mg/ml (dose 2 mg/kg) and a suspension in NMP:gelatine/NaCl (10%/90%) for po administration with a nominal drug concentration of 2.5 mg/ml (dose 10 mg/kg). PK parameters in Table 2 were estimated from the concentration time profiles using Phoenix WinNonlin software (Certara, Princeton, NJ, United States).

[5] = biological target: T1, 5HT3 (Homo sapiens, UniProt P46098); assay: Off-target screen 5HT3; assay type: binding; settings: 10 µM; single point, duplicates
T1 construct: purchased Eurofins CEREP SA
T1 sequence (P46098 24-478): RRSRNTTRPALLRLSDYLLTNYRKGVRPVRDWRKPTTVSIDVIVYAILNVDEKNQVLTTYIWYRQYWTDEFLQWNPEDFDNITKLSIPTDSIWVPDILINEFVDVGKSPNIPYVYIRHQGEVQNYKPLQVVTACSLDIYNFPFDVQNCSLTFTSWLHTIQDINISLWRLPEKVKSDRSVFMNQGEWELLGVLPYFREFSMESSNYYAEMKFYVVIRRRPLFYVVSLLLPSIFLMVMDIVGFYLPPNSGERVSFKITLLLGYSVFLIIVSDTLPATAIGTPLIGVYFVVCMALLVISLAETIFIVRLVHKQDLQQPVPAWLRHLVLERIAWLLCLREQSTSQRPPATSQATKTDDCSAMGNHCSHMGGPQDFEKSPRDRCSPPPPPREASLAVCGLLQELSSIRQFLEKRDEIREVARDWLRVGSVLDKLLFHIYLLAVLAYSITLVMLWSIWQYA

[6] = biological target: T2, Acetylcholinesterase (Homo sapiens, UniProt P22303); assay: Off-target screen Acetylcholinesterase; assay type: biochemical; settings: 10 µM; single point, duplicates
T2 construct: purchased Eurofins CEREP SA
T2 sequence (P22303 32-614): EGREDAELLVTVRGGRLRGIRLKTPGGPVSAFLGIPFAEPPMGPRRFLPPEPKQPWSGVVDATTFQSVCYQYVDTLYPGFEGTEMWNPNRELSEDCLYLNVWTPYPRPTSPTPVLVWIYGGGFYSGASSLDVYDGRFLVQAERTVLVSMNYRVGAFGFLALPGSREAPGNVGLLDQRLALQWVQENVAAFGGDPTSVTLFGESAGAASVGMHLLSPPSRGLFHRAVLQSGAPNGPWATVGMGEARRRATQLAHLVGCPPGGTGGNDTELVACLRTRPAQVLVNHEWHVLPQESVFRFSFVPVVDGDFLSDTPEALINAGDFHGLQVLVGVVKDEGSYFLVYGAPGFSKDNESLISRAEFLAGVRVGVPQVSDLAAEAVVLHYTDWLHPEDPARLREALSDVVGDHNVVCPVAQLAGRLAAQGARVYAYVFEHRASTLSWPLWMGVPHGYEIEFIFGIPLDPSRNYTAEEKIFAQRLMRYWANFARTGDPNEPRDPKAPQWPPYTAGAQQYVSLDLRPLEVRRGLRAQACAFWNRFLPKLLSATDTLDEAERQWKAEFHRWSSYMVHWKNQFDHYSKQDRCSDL

[7] = biological target: T3, Adenosine A1 respetor (Homo sapiens, UniProt P30542); assay: Off-target screen Adenosine A1; assay type: binding; settings: 10 µM; single point, duplicates
T3 construct: purchased Eurofins CEREP SA

[8] = biological target: T4, ACE (Homo sapiens, UniProt P12821); assay: Off-target screen ACE; assay type: biochemical; settings: 10 µM; single point, duplicates
T4 construct: purchased Eurofins CEREP SA

[9] = biological target: T5, Cyclooxygenase 2 (Homo sapiens, UniProt P35354); assay: Off-target screen Cyclooxygenase 2; assay type: biochemical; settings: 10 µM; single point, duplicates
T5 construct: purchased Eurofins CEREP SA
T5 sequence (P35354 18-604): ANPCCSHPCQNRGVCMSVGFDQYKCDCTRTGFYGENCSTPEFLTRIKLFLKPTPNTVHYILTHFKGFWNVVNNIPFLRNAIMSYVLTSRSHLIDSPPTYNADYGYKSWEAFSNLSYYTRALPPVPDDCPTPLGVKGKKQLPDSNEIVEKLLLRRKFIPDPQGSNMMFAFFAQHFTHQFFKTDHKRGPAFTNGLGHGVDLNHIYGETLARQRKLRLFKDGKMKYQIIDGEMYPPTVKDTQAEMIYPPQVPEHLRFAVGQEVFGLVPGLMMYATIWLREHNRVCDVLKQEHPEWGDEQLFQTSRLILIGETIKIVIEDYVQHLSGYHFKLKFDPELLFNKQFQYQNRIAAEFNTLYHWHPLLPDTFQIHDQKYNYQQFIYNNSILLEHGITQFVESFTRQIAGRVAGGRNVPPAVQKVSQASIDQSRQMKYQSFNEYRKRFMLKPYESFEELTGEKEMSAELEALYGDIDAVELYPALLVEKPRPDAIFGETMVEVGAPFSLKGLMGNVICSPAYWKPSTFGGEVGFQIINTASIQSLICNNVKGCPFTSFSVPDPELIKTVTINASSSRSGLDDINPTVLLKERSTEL

[10] = biological target: T6, Estrogen receptor alpha (Homo sapiens, UniProt P03372); assay: Off-target screen Estrogen receptor alpha; assay type: binding; settings: 10 µM; single point, duplicates
T6 construct: purchased Eurofins CEREP SA
T6 sequence (P03372 whole entry): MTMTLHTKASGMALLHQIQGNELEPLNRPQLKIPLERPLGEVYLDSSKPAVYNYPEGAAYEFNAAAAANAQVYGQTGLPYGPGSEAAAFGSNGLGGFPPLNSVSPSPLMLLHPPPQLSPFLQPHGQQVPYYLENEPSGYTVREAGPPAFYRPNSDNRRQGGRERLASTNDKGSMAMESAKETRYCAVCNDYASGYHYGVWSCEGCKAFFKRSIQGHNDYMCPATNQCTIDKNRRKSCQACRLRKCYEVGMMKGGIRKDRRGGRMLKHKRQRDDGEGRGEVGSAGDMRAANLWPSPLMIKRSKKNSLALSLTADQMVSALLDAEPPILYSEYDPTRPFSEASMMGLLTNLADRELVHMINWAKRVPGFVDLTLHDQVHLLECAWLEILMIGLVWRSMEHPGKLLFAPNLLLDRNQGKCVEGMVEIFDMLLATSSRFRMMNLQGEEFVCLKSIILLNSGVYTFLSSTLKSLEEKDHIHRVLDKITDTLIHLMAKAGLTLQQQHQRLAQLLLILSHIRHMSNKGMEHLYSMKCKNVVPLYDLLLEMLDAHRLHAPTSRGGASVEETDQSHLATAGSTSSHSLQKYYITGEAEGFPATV

[11] = biological target: T7, LPA2 receptor (Homo sapiens, UniProt Q9HBW0); assay: Off-target screen LPA2 receptor, antagonist mode; assay type: cell-based; settings: 10 µM, single point, duplicates
T7 construct: purchased Eurofins CEREP SA
T7 sequence (Q9HBW0 whole entry): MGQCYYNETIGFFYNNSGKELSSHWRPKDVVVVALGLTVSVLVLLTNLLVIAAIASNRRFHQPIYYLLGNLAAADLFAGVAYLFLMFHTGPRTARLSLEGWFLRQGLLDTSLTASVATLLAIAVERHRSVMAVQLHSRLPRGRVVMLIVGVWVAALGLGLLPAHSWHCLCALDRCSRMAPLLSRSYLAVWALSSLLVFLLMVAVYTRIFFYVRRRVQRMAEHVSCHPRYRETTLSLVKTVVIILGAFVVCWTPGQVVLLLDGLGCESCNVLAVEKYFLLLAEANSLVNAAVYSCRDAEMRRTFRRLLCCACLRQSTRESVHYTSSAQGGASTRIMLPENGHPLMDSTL

[12] = biological target: T8, Muscarinic receptor M2 (Homo sapiens, UniProt P08172); assay: Off-target screen Muscarinic M2; assay type: binding; settings: 10 µM; single point, duplicates
T8 construct: purchased Eurofins CEREP SA
T8 sequence (P08172 whole entry): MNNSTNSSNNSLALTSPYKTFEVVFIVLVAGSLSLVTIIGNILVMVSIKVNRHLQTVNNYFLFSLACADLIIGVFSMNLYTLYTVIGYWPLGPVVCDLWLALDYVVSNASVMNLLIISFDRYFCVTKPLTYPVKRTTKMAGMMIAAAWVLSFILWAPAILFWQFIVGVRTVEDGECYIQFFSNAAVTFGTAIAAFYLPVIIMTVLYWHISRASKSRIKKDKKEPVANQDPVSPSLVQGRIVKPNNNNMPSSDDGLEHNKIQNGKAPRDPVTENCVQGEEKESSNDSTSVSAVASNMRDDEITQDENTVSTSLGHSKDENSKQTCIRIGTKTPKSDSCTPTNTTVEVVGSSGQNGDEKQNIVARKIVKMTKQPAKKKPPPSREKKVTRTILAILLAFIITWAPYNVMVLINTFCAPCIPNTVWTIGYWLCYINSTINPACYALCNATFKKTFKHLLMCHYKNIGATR

[13] = biological target: T9, Norepinephrine transporter (Homo sapiens, UniProt P23975); assay: Off-target screen Norepinephrine transporter; assay type: binding; settings: 10 µM; single point, duplicates
T9 construct: purchased Eurofins CEREP SA
T9 sequence (P23975 whole entry): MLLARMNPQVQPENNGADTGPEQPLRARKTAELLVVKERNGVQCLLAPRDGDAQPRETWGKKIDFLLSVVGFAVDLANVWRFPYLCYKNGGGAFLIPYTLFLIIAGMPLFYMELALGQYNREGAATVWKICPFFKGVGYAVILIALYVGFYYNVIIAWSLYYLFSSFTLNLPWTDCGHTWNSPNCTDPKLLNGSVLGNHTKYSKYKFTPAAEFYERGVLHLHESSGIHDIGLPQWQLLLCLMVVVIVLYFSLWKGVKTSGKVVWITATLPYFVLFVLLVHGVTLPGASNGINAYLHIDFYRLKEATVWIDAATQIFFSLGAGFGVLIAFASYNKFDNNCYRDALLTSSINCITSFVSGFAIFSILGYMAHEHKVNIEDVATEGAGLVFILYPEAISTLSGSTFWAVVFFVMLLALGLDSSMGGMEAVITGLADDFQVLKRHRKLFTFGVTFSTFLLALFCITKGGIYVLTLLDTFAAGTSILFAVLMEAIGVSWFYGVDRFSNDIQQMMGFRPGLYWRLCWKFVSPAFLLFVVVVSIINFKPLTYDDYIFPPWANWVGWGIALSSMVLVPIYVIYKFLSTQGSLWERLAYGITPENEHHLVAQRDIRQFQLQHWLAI

[14] = biological target: T10, Prostaglandin F receptor (Homo sapiens, UniProt P43088); assay: Off-target screen Prostaglandin F receptor; assay type: binding; settings: 10 µM; single point, duplicates
T10 construct: purchased Eurofins CEREP SA
T10 sequence (P43088 whole entry): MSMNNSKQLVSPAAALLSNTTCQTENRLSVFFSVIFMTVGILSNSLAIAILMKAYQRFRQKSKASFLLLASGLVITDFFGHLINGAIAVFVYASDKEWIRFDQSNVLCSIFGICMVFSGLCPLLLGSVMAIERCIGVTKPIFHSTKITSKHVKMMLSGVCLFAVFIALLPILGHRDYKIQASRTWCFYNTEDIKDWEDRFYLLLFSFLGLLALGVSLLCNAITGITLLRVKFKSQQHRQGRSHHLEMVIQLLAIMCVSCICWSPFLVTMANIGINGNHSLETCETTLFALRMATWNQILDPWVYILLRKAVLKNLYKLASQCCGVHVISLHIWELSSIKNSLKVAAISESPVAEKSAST

[15] = biological target: T11, S1P2 (Homo sapiens, UniProt O95136); assay: Off-target screen S1P2, antagonist mode; assay type: cell-based; settings: 10 µM, single point, duplicates
T11 construct: purchased Eurofins CEREP SA

[16] = biological target: T12, S1P3 (Homo sapiens, UniProt Q99500); assay: Off-target screen S1P3, antagonist mode; assay type: cell-based; settings: 10 µM, single point, duplicates
T12 construct: purchased Eurofins CEREP SA

[17] = biological target: T13, Xanthine oxidase (Bos taurus, UniProt P80457); assay: Off-target screen Xanthine oxidase; assay type: biochemical, b; settings: 10 µM; single point, duplicates
T13 construct: purchased Eurofins CEREP SA

[18] = biological target: T14, Alpha1A-adrenoreceptor (Homo sapiens, UniProt P35348); assay: Off-target screen Alpha1A-adrenoreceptor; assay type: binding; settings: 10 µM; single point, duplicates
T14 construct: purchased Eurofins CEREP SA
T14 sequence (P35348 whole entry): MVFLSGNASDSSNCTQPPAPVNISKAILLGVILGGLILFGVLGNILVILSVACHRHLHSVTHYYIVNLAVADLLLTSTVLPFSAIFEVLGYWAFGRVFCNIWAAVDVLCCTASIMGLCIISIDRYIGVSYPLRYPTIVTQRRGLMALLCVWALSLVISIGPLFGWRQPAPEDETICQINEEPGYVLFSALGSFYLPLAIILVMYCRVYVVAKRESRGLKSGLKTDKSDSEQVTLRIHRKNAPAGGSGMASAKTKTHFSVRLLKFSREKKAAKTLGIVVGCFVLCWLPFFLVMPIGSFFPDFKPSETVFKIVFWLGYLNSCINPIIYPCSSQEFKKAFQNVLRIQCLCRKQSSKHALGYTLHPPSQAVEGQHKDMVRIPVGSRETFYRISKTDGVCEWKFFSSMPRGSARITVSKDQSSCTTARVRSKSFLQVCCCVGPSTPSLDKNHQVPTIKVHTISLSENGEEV

[19] = biological target: T15, kappa opioid receptor (Rattus norvegicus, UniProt P34975); assay: Off-target screen kappa opioid receptor; assay type: binding; settings: 10 µM; single point, duplicates
T15 construct: purchased Eurofins CEREP SA
T15 sequence (P34975 whole entry): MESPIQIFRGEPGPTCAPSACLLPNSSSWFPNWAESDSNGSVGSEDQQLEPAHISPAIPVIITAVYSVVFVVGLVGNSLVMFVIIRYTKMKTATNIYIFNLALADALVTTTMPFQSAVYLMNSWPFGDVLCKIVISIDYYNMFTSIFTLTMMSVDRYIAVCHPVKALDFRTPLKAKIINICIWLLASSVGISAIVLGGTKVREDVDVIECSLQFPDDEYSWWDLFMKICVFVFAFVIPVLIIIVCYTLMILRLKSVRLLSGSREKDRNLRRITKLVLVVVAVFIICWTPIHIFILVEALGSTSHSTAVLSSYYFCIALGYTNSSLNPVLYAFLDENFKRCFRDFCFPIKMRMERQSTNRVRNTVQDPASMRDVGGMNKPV

[20] = tested on: Ca2^+ channel (diltiazem site); assay: Off-target screen Ca2+ channel (diltiazem site); settings: 10 µM; single point, duplicates
[21] = plasma, po, 20 mg/kg/day, food admix (FA), 20 mg/kg per day

## O=C(OCc1ccc(OC(F)(F)F)cc1)N1C[C@@H]2CN(C(=O)c3ccc4[nH]nnc4c3)C[C@H]2C1 [Compound 13, (3aS,6aS)-5-(1H-Benzotriazole-5-carbonyl)-hexahydro-pyrrolo[3,4-c]pyrrole-2-carboxylic acid 4-trifluoromethoxy-benzyl ester]
[1]
  logD at 12 h: 3.2
[2]
  solubility: 28 µg/mL (≈ 58.9 µM)
[3]
  Mic CL m: 10/10/10 µL/m/mg prot
[4]; [21]
  AUC(0-inf): 260 µg·h/mL
  Cmax: 2980 ng/mL
  Tmax: 17 h
  half-life: 13 h
[4]; plasma, iv bolus, 2 mg/kg
  AUC(0-inf): 21 µg·h/mL
  half-life: 2.6 h
[4]; plasma, iv bolus, 2 mg/kg, read-out: CLp
  clearance: 1.6 mL/min/kg
[4]; plasma, iv bolus, 2 mg/kg, read-out: Vdss
  Vd: 0.3 L/kg
[4]; plasma, oral gavage, 10 mg/kg
  AUC(0-inf): 130 µg·h/mL
  Cmax: 17700 ng/mL
  Tmax: 0.75 h
  half-life: 4.6 h
[4]; food admix (FA), 20 mg/kg per day
  Oral F: 80%
[4]; oral gavage, 10 mg/kg
  Oral F: 80%
[5]
  5HT3 (h) [% inhib]: -2 % inhib
[6]
  Acetylcholinesterase (h) [% inhib]: -23 % inhib
[7]
  Adenosine A1 respetor (h) [% inhib]: 1 % inhib
[8]
  ACE (h) [% inhib]: -25 % inhib
[9]
  Cyclooxygenase 2 (h) [% inhib]: 1 % inhib
[10]
  Estrogen receptor alpha (h) [% inhib]: -6 % inhib
[11]
  LPA2 receptor (h), antago. mode [% inhib]: 49 % inhib
[12]
  Muscarinic receptor M2 (h) [% inhib]: -15 % inhib
[13]
  Norepinephrine transporter (h) [% inhib]: 20 % inhib
[14]
  Prostaglandin F receptor (h) [% inhib]: 26 % inhib
[15]
  S1P2 (h), antago. mode [% inhib]: 45 % inhib
[16]
  S1P3 (h), antago. mode [% inhib]: 47 % inhib
[17]
  Xanthine oxidase (b) [% inhib]: 7 % inhib
[18]
  Alpha1A-adrenoreceptor (h) [% inhib]: 6 % inhib
[19]
  kappa opioid receptor (r) [% inhib]: -1 % inhib
[20]
  Ca2^+ channel (diltiazem site) (r) [% inhib]: 9 % inhib
